Measured values reported in ChEMBL document CHEMBL5543162, “Discovery of a Novel Orally Bioavailable FLT3-PROTAC Degrader for Efficient Treatment of Acute Myeloid Leukemia and Overcoming Resistance of FLT3 Inhibitors” (J Med Chem, 2024).
Calls of active or inactive are those of the source. The calls are words filed in the database; no cut-off is given here.

Legend:
[1] = system: Protein cereblon/Receptor-type tyrosine-protein kinase FLT3 (Homo sapiens), P36888+Q96SW2 [UNDEFINED MUTATION]; experiment: PROTAC activity at CRBN/FLT3-ITD mutant in human MV4-11 cells assessed as decrease in STAT5 level at 20 nM by Western blot analysis; format: cell-based; conditions: time <= 12.0 hrs, TDE = time-dependent effect
[2] = system: Protein cereblon/Receptor-type tyrosine-protein kinase FLT3 (Homo sapiens), P36888+Q96SW2 [UNDEFINED MUTATION]; experiment: PROTAC activity at CRBN/FLT3-ITD mutant in human MV4-11 cells assessed as decrease in ERK level at 20 nM by Western blot analysis; format: cell-based; conditions: time <= 12.0 hrs, TDE = time-dependent effect
[3] = system: Protein cereblon/Receptor-type tyrosine-protein kinase FLT3 (Homo sapiens), P36888+Q96SW2 [UNDEFINED MUTATION]; experiment: PROTAC activity at CRBN/FLT3-ITD mutant in human MOLM-13 cells assessed as decrease in STAT5 level incubated for 12 hrs by Western blot analysis; format: cell-based; conditions: dose <= 20.0 nM
[4] = system: Protein cereblon/Receptor-type tyrosine-protein kinase FLT3 (Homo sapiens), P36888+Q96SW2 [UNDEFINED MUTATION]; experiment: PROTAC activity at CRBN/FLT3-ITD mutant in human MOLM-13 cells assessed as decrease in S6K level incubated for 12 hrs by Western blot analysis; format: cell-based; conditions: dose <= 20.0 nM
[5] = system: Protein cereblon/Receptor-type tyrosine-protein kinase FLT3 (Homo sapiens), P36888+Q96SW2 [UNDEFINED MUTATION]; experiment: PROTAC activity at CRBN/FLT3-ITD mutant in human MOLM-13 cells assessed as protein degradation at 20 nM by Western blot analysis; format: cell-based; conditions: time <= 12.0 hrs, TDE = time-dependent effect
[6] = system: Protein cereblon/Receptor-type tyrosine-protein kinase FLT3 (Homo sapiens), P36888+Q96SW2 [UNDEFINED MUTATION]; experiment: PROTAC activity at CRBN/FLT3-ITD mutant in human MOLM-13 cells assessed as decrease in STAT5 level at 20 nM by Western blot analysis; format: cell-based; conditions: time <= 12.0 hrs, TDE = time-dependent effect
[7] = system: Protein cereblon/Receptor-type tyrosine-protein kinase FLT3 (Homo sapiens), P36888+Q96SW2 [UNDEFINED MUTATION]; experiment: PROTAC activity at CRBN/FLT3-ITD mutant in human MV4-11 cells assessed as protein degradation at 100 nM incubated for 8 hrs in presence of bortezomib by Western blot analysis; format: cell-based
[8] = system: Protein cereblon/Receptor-type tyrosine-protein kinase FLT3 (Homo sapiens), P36888+Q96SW2 [UNDEFINED MUTATION]; experiment: PROTAC activity at CRBN/FLT3-ITD mutant in human MV4-11 cells assessed as protein degradation at 100 nM incubated for 24 hrs by Western blot analysis; format: cell-based
[9] = Antiproliferative activity against human U-937 cells expressing wild-type FLT3 incubated for 48 hrs by CCK8 assay; format: toxicity, cell-based
[10] = Antiproliferative activity against human HL-60 cells expressing wild-type FLT3 incubated for 48 hrs by CCK8 assay; format: toxicity, cell-based
MV4-11 [11] = experiment: Induction of cell cycle arrest at G1 phase in human MV4-11 cells at 5 nM incubated for 24 hrs by PI/RNase staining based flow cytometry relative to control; format: functional
MV4-11 [12] = experiment: Induction of apoptosis in human MV4-11 cells incubated for 24 hrs by Annexin V-FITC/PI staining based flow cytometry; format: functional, cell-based; conditions: dose 25-100 nM
[13] = Half life in Sprague-Dawley rat at 1 mg/kg, iv measured for 24 hrs by LC-MS/MS analysis; format: ADME, organism-based; conditions: in vivo
MV4-11 [14] = experiment: Antitumor activity against human MV4-11 cells xenografted in nu/nu mouse at 2.5 mg/kg, po administered daily for 2 weeks relative to control; format: functional; conditions: MV4-11, 336 h, read-out: TGI
MV4-11 [15] = experiment: Antitumor activity against human MV4-11 cells xenografted in nu/nu mouse at 5 mg/kg, po administered daily for 2 weeks relative to control; format: functional; conditions: MV4-11, 336 h, read-out: TGI
MV4-11 [16] = experiment: In vivo PROTAC activity at CRBN/FLT3-ITD mutant in human MV4-11 cells xenografted in nu/nu mouse assessed as protein degradation at 1.25 mg/kg, po administered daily for 2 weeks by immunoblot analysis; format: functional, organism-based
MV4-11 [17] = experiment: Antitumor activity against human MV4-11 cells xenografted in nu/nu mouse assessed as decrease in Ki67 level at 1.25 to 10 mg/kg, po administered daily for 2 weeks by IHC analysis; format: functional, organism-based; conditions: dose 1.25-10 mg/kg
[18] = Toxicity in nu/nu mouse xenografted with human MV4-11 cells assessed as damage in lung at 1.25 to 10 mg/kg, po administered daily for 2 weeks by H and E staining based analysis; format: organism-based; conditions: in vivo, 336 h, dose 1.25-10 mg/kg
[19] = Toxicity in nu/nu mouse xenografted with human MV4-11 cells assessed as damage in kidney at 1.25 to 10 mg/kg, po administered daily for 2 weeks by H and E staining based analysis; format: organism-based; conditions: in vivo, 336 h, dose 1.25-10 mg/kg
Mus musculus [20] = experiment: Anti-leukemic activity in NSG mouse xenografted with human MV4-11 cells expressing luciferase assessed as decrease in CD45+/CD33+ cells proportion in peripheral blood at 1.25 to 10 mg/kg, po administered daily for 3 weeks; format: functional, organism-based; conditions: dose 1.25-10 mg/kg
Mus musculus [21] = experiment: Anti-leukemic activity in NSG mouse xenografted with human MV4-11 cells expressing luciferase assessed as decrease in CD45+/CD33+ cells proportion in bone marrow at 1.25 to 10 mg/kg, po administered daily for 3 weeks; format: functional, organism-based; conditions: dose 1.25-10 mg/kg
[22] = system: Protein cereblon/Receptor-type tyrosine-protein kinase FLT3 (Homo sapiens), P36888+Q96SW2 [UNDEFINED MUTATION]; experiment: PROTAC activity at CRBN/FLT3-ITD in human MV4-11 cells assessed as effect on PI3K-Akt signalling pathway by KEGG analysis; format: cell-based
MOLM-13 [23] = experiment: Antiproliferative activity against Sunitinib-resistant human MOLM-13 cells incubated for 48 hrs by CCK8 assay; format: functional, cell-based; conditions: MOLM-13, 48 h
MOLM-13 [24] = experiment: Antiproliferative activity against Quizartinib-resistant human MOLM-13 cells incubated for 48 hrs by CCK8 assay; format: functional, cell-based; conditions: MOLM-13, 48 h
[25] = Antiproliferative activity against mouse Ba/F3 FLT3-ITD cells incubated for 48 hrs by CCK8 assay; format: functional, cell-based
BaF3 = experiment: Antiproliferative activity against mouse Ba/F3 cells expressing FLT3-ITD D835Y mutant incubated for 48 hrs by CCK8 assay; format: functional, cell-based; conditions: BaF3, 48 h
[26] = Stability in Sprague-Dawley rat plasma at 50 ug/ml incubated upto 8 hrs by LC-MS/MS analysis; format: ADME, cell-free; conditions: at 50 µg/mL
[27] = Stability in Sprague-Dawley rat intestinal fluid at 50 ug/ml incubated upto 8 hrs by LC-MS/MS analysis; format: ADME, tissue-based, Intestine; conditions: simulated gi fluid, at 50 µg/mL
[28] = Stability in human liver microsomes assessed as half life; format: ADME, Microsome
[29] = Stability in dog liver microsomes assessed as half life; format: ADME, Canis lupus familiaris, Microsome
[30] = Stability in monkey liver microsomes assessed as half life; format: ADME, Microsome; conditions: chlorocebus aethiops
[31] = Stability in rat liver microsomes assessed as half life; format: ADME, Microsome
[32] = Stability in human liver microsomes assessed as intrinsic clearance; format: ADME, Microsome; conditions: read-out: CLH
[33] = Stability in dog liver microsomes assessed as intrinsic clearance; format: ADME, Canis lupus familiaris, Microsome; conditions: read-out: CLH
[34] = Stability in rat liver microsomes assessed as intrinsic clearance; format: ADME, Microsome; conditions: read-out: CLH
[35] = Stability in mouse liver microsomes assessed as intrinsic clearance; format: ADME, Microsome; conditions: read-out: CLH
[36] = Stability in human liver microsomes assessed as hepatic clearance; format: ADME, Microsome
Cytochrome P450 2C9 = Cytochrome P450 2C9 (Homo sapiens, UniProt P11712); experiment: Inhibition of CYP2C9 (unknown origin); format: ADME
Cytochrome P450 2C19 = Cytochrome P450 2C19 (Homo sapiens, UniProt P33261); experiment: Inhibition of CYP2C19 (unknown origin); format: ADME
CYP3A4/CYP3A5 [37] = molecular target: T1, CYP3A4/CYP3A5 (Homo sapiens, UniProt P08684+P20815); experiment: Inhibition of CYP3A4/CYP3A5 (unknown origin) using midazolam as substrate; format: ADME, protein assay; conditions: probe midazolam
CYP3A4/CYP3A5 [38] = molecular target: T1, CYP3A4/CYP3A5; experiment: Inhibition of CYP3A4/CYP3A5 (unknown origin) using testosterone as substrate; format: ADME, protein assay; conditions: probe testosterone

Chain of Protein cereblon/Receptor-type tyrosine-protein kinase FLT3 (Homo sapiens), P36888+Q96SW2 [UNDEFINED MUTATION] (P36888 whole entry, looked up, stated change not applied): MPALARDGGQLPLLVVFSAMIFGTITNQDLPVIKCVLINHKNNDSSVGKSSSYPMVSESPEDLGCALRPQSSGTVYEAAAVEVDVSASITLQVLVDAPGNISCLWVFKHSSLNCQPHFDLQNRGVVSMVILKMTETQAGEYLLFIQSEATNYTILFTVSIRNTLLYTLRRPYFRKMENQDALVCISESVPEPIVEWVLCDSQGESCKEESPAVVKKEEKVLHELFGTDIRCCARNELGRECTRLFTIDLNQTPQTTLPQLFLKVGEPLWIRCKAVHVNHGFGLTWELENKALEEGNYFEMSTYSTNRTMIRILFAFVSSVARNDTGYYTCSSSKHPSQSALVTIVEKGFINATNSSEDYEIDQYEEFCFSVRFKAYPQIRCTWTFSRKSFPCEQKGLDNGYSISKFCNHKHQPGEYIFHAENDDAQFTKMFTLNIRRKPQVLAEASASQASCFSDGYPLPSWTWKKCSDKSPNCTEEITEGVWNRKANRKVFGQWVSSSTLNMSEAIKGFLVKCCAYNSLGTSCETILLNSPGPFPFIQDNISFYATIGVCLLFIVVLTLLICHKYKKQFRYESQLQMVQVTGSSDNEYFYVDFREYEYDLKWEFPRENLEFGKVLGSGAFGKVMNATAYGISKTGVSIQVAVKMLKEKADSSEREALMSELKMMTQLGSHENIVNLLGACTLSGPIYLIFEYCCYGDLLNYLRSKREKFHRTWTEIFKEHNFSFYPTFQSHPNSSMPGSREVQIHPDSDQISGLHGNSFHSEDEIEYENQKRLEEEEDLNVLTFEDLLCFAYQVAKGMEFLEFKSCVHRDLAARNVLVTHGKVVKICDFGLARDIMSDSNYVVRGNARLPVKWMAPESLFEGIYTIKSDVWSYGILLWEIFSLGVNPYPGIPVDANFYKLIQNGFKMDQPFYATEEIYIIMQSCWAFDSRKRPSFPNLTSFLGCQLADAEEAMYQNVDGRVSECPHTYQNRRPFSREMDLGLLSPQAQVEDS
Chain of Protein cereblon/Receptor-type tyrosine-protein kinase FLT3 (Homo sapiens), P36888+Q96SW2 [UNDEFINED MUTATION] (Q96SW2 whole entry, looked up, stated change not applied): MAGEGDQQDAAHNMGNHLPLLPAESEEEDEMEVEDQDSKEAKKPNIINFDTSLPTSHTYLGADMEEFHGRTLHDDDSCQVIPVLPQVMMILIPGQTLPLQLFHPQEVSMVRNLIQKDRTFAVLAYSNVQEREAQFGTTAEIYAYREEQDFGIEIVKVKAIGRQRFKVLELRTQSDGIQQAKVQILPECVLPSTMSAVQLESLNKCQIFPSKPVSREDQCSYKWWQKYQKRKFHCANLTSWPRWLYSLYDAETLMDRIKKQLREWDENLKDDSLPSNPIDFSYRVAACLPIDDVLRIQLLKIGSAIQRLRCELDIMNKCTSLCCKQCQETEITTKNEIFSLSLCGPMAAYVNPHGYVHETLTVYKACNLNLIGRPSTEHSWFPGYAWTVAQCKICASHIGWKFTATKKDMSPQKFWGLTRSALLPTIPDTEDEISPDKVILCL
Chain of Cytochrome P450 2C9 (P11712 whole entry): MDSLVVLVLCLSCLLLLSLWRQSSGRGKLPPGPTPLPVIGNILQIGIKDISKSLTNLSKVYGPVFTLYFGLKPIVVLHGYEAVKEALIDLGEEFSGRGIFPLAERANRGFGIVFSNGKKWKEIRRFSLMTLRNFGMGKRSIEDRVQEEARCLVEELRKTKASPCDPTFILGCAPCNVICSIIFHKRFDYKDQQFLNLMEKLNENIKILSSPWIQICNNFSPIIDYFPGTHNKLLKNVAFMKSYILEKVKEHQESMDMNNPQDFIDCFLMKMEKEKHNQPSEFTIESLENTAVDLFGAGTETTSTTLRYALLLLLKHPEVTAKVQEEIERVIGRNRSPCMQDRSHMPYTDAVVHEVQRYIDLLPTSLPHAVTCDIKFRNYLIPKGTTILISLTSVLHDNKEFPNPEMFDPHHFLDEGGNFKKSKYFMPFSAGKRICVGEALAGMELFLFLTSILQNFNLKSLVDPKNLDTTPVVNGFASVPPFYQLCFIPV
Chain of Cytochrome P450 2C19 (P33261 whole entry): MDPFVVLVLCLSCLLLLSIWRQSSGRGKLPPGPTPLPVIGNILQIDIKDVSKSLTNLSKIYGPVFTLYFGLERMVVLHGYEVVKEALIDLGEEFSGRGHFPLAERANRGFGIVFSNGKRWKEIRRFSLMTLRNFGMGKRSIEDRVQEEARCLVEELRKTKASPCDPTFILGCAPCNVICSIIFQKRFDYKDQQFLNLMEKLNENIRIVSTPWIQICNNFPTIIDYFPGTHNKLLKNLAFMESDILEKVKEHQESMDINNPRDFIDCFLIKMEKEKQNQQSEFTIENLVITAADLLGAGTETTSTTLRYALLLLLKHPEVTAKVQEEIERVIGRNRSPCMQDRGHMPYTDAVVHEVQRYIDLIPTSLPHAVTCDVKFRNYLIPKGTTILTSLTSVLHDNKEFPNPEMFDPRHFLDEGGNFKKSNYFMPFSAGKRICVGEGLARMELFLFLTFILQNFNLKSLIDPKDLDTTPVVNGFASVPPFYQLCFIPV

Cc1c(NC(=O)CN2CCN(CC3CCN(c4ccc5c(c4)C(=O)N(C4CCC(=O)NC4=O)C5=O)CC3)CC2)c[nH]c1/C=C1\C(=O)Nc2ccc(F)cc21 (stereo unspecified)
Activity [1]: Tde | Activity [2]: Tde | Activity [3]: Dose-Dependent Effect | Activity [4]: Dose-Dependent Effect | Activity [5]: Tde | Activity [6]: Tde | Activity [7]: inactive | Activity [8]: Active | IC50 at 48 h [9]: > 40000 nM | IC50 at 48 h [10]: > 40000 nM | Activity (MV4-11 [11]): 85.5% | Activity (MV4-11 [12]): Dose-Dependent Effect | half-life [13]: 6.5 h | inhibition in vivo at 2.5 mg/kg (MV4-11 [14]): 84.4% | inhibition in vivo at 5 mg/kg (MV4-11 [15]): 97.5% | Activity (MV4-11 [16]): Active | Activity (MV4-11 [17]): Active | Activity [18]: Non-Toxic | Activity [19]: Non-Toxic | Activity (Mus musculus [20]): Active | Activity (Mus musculus [21]): Active | Activity [22]: Active | IC50 (MOLM-13 [23]): 147 nM | IC50 (MOLM-13 [24]): 484 nM | IC50 [25]: 17 nM | IC50 (BaF3): 31.3 nM | Stability [26]: Stable | Stability [27]: Stable | half-life [28]: 1.16 h | half-life [29]: 1.88 h | half-life [30]: 0.615 h | half-life [31]: 1.54 h | CLint scaled [32]: 23.1 mL/min/kg | CLint scaled [33]: 17.7 mL/min/kg | CLint scaled [34]: 27 mL/min/kg | CLint scaled [35]: 92.7 mL/min/kg | CLhep predicted [36]: 10.9 mL/min/kg | IC50 (Cytochrome P450 2C9): > 50000 nM | IC50 (Cytochrome P450 2C19): > 50000 nM | IC50 (CYP3A4/CYP3A5 [37]): > 50000 nM | IC50 (CYP3A4/CYP3A5 [38]): > 50000 nM
